Like-named read-outs stand apart in the source and are kept apart here.
Tests used:
human D2R/β-arrestin [1] = target: T1, human D2R/β-arrestin (Homo sapiens (Human), UniProt P14416); assay: Gi/cAMP agonist assay (Lance Ultra cAMP, forskolin); type: cell-based; settings: CHO-K1 cells expressing human D2R/β-arrestin; agonist mode, 2.5 μM forskolin
Method: Eu-cAMP tracer solution (10 μl, PerkinElmer, 360 μl of Tracer in 17.64 ml kit buffer) and ULight-anti-cAMP solution (10 μl, 120 μL antibody in 17.88 ml kit buffer) was then added to each well.

human D2R/β-arrestin [2] = target: T1, human D2R/β-arrestin; settings: CHO-K1 cells expressing human D2R/β-arrestin, antagonist mode, quinpirole 130 nM; for IC50: read-out: β-arrestin Antagonist
Method: (§1) Cells were prepared for assays by growing cultures for up to 2 weeks (from about 6-20 passages). A vial of frozen cells was thawed in a water bath held at 37° C. The cells were then transferred into a 50 ml tube with 10 ml growth media. The vial was rinsed with growth media and the contents transferred to the 50 ml tube. The 50 ml tube was centrifuged at 1200 rpm for 5 minutes at room temperature. […] When the cells reached about 90% confluence (approximately 3 days between passages), the cells were passaged and used for either the agonist or antagonist assays as described below.
(§2) The cells were prepared for β-arrestin assays as described above. The assays were performed using a PathHunter® β-Arrestin Detecting Kit (DiscoveRX). The cells were grown on 225 mm dishes, then washed once with 1×PBS (Cellgro), followed by digestion with 2.5 ml 1× Detachment reagent (DRX 92-0009) for approximately 2 minutes.

human D2R/β-arrestin [3] = target: T1, human D2R/β-arrestin; settings: read-out: cAMP Antagonist; CHO-K1 cells expressing human D2R/β-arrestin; antagonist mode, 2.5 μM forskolin and 2.7 nM quinpirole
Method: as §1
(§3) The cells were prepared for Gi/cAMP assays as described above. The assays were performed using a PE Lance Ultra cAMP kit (TRF0263). The cells were grown on 225 mm dishes, then washed once with 1×PBS (Cellgro) before digestion with 2.5 ml 1× Detachment reagent (DRX 92-0009) for about 2 minutes. PBS (20 ml) was then added to the plate, and the cells were transferred to a 50 ml centrifuge tube, and centrifuged at room temperature using BD Dynac III, at 1200 rpm for 5 minutes. […] The plates were then incubated at room temperature for about 30 minutes before addition of Eu-cAMP tracer solution (10 μl, PerkinElmer) and then ULight-anti-cAMP solution (10 μl) to each well.

human D2R/β-arrestin [4] = target: T1, human D2R/β-arrestin; assay: β-arrestin agonist assay (PathHunter); type: cell-based; settings: CHO-K1 cells expressing human D2R/β-arrestin; agonist mode
Method: The detection reagent (9.6 μL, Buffer:Emerald II:Galactor-Star in a 19:5:1 ratio, i.e., 14.06 mL:3.7 mL:0.74 mL=18.5 mL) was then added to the agonist plates.

D2 receptor = D2 receptor (Homo sapiens (Human), UniProt P14416); assay: D2 radioligand binding assay
Sequence of D2 receptor (P14416 whole entry): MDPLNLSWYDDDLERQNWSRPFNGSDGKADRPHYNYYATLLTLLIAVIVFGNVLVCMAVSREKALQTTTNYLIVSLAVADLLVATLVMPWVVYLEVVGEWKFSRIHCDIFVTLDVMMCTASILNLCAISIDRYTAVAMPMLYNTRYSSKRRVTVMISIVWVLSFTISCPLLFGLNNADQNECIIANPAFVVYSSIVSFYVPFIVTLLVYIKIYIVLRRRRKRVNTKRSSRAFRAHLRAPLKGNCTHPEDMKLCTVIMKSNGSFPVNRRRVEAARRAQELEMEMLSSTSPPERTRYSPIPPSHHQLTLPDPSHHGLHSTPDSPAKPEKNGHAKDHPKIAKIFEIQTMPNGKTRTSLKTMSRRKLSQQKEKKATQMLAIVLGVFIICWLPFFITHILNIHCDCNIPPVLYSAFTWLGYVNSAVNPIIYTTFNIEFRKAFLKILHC

[5] = Pharmacokinetic and brain distribution study in mice; type: in vivo; settings: single intraperitoneal dose 30 mg/kg, male C57BL/6 mice; for half-life / AUC / Cmax: mouse, ip
Method: Pharmacokinetic Studies on Mice Brains
Twelve male C57BL/6 mice were weighed and administered intraperitoneally with a dose of test compound (Examples 90, 157, 125) solution formulation. The dosing volume administered for the intraperitoneal route was at 10 mL/kg. Blood samples (approximately […]) were collected from retro-orbital plexus of each mouse under light isoflurane anesthesia at 0.08, 0.5, 1, 2, 4, and 8 hr. Following the collection of blood, plasma was also harvested by centrifugation and stored at −70° C. until analysis. After collection of plasma, the animals were euthanized and brain samples were isolated at 0.08, 0.5, 1, 2, 4, and 8 hr. Tissue samples (brain) were homogenized using ice-cold phosphate buffer saline (pH 7.4) and homogenates were stored below −70° C. until analysis. Total homogenate volume was three times the tissue weight. Concentrations of test compound in mouse plasma and brain samples were determined by LC-MS/MS method.
Identical extraction procedures were used for the plasma/brain homogenate study samples and the spiked plasma calibration standards: A 25 μL sample of either study sample (plasma/brain) or spiked calibration standard was added to individual pre-labeled micro-centrifuge tubes. A volume of 100 μL of IS (antipyrine, 500 ng/mL) prepared in acetonitrile was then added to the micro-centrifuge tubes, except in a sample used as a negative control where only acetonitrile was added and vortexed for 5 minutes. Samples were centrifuged for 20 minutes at the speed of 4000 rpm at 4° C. Following centrifugation, 100 μL of the supernatant was sampled from each centrifuge tube and transferred into insert vials. These vials remained within the auto-sampler for the LC/MS/MS analysis. Standards used for calibration were prepared by spiking 10 μL of the test compound in 190 μL of control (used as a negative control) mouse plasma/brain homogenate.
The plasma and brain concentration-time data of test compounds was provided for data analysis. The plasma and brain concentration-time data was then used for the pharmacokinetic analysis. Non-Compartmental-Analysis module in Phoenix® WinNonlin® (Version 6.3) was used to assess the pharmacokinetic parameters. Peak plasma concentrations (Cmax) and time for the peak plasma concentrations (Tmax) were the observed values. The areas under the concentration time curve (AUClast and AUCinf) were calculated by linear trapezoidal rule. The terminal elimination rate constant, ke was determined by regression analysis of the linear terminal portion of the log plasma concentration-time curve.
Illustrative results are presented in FIG. 2, the pharmacokinetic parameters are as follow: […]

Brain protein binding = type: in vitro ADME
human D2R/β-arrestin [6] = target: T1, human D2R/β-arrestin; assay: cell-based; settings: β-arrestin Antagonist, CHO-K1 cells expressing human D2R/β-arrestin; antagonist mode, quinpirole 130 nM
Method: as §1, §2

human D2R/β-arrestin [7] = target: T1, human D2R/β-arrestin; assay: cell-based; settings: cAMP Antagonist, CHO-K1 cells expressing human D2R/β-arrestin; antagonist mode, 2.5 μM forskolin and 2.7 nM quinpirole
Method: as §1, §3

[8] = brain, read-out: Brain T1/2 (converted)
[9] = plasma, read-out: Plasma T1/2 (converted)

T1 sequence (P14416 whole entry): as above

| IC50 (human D2R/β-arrestin [3]) [µM] | EC50 (human D2R/β-arrestin [4]) [µM] | Ki (D2 receptor) [µM] | EC50 (human D2R/β-arrestin [1]) [µM] | IC50 (human D2R/β-arrestin [2]) [µM] | IC50 (human D2R/β-arrestin [6]) [µM] | IC50 (human D2R/β-arrestin [7]) [µM] | SMILES | other results |
| --- | --- | --- | --- | --- | --- | --- | --- | --- |
| > 30 | 1 to 10 | 10 to 30 | < 0.1 | > 30 | – | – | CC1(Oc2ccncc2)CCN(CCOc2ccccc2)C1 (centres unmarked) [Example 59b] | – |
| – | > 30 | 0.1 to 1 | < 0.1 | 1 to 10 | – | 0.1 to 1 | CC1(C(=O)Nc2ccccc2)CCN(CC2COc3ccccc3O2)CC1 (single isomer, unassigned) [Compound 204b, 1-((2,3-dihydrobenzo[b][1,4]dioxin-2-yl)methyl)-4-methyl-N-phenylpiperidine-4-carboxamide] | – |
| – | > 30 | < 0.1 | > 30 | – | 0.1 to 1 | 0.1 to 1 | COC1(C)CCN(CCOc2ccccc2C(F)(F)F)CC1 [Compound 123, 4-methoxy-4-methyl-1-(2-(2-(trifluoromethyl)phenoxy)ethyl) piperidine] | – |
| – | > 30 | < 0.1 | < 0.1 | – | 0.1 to 1 | > 30 | CC1(Oc2ccccc2)CCN(CCOc2ccccc2OC(F)(F)F)CC1 [Example 110, 4-methyl-4-phenoxy-1-(2-(2-(trifluoromethoxy)phenoxy)ethyl) piperidine] | – |
| – | > 30 | 1 to 10 | < 0.1 | – | 1 to 10 | > 30 | CC1(Oc2cccc(C(F)(F)F)c2)CCN(CCOc2ccccc2)C1 (centres unmarked) [Example 55, 3-methyl-1-(2-phenoxyethyl)-3-(3-(trifluoromethyl)phenoxy)pyrrolidine] | – |

The next lines start with the molecule.

| SMILES | IC50 (human D2R/β-arrestin [3]) [µM] | EC50 (human D2R/β-arrestin [4]) [µM] | Ki (D2 receptor) [µM] | EC50 (human D2R/β-arrestin [1]) [µM] | IC50 (human D2R/β-arrestin [2]) [µM] | IC50 (human D2R/β-arrestin [6]) [µM] | IC50 (human D2R/β-arrestin [7]) [µM] | other results |
| --- | --- | --- | --- | --- | --- | --- | --- | --- |
| O=C1CCc2ccc(OCCCCN3CCCN(c4cccc(Cl)c4Cl)CC3)nc2N1 [UNC9975, reference compound] | – | – | – | – | – | – | – | cAMP Agonist (human D2R/β-arrestin [1]): B or A; β-arrestin Antagonist (human D2R/β-arrestin [2]): B or A |
| CC1(Oc2ccc(Cl)cc2)CCN(CCOc2ccc3ncsc3c2)C1 (centres unmarked) [Compound 18b] | > 30 | > 30 | 1 to 10 | 0.1 to 1 | 1 to 10 | – | – | – |
| Clc1cccc(C2CCN(CCCOc3ccc4scnc4c3)CC2)c1Cl [UNC9994, reference compound] | – | – | – | – | – | – | – | β-arrestin Agonist (human D2R/β-arrestin [4]): B or C; β-arrestin Antagonist (human D2R/β-arrestin [2]): B or C |
| FC(F)(F)c1ccccc1OCCN1CCC2(CC1)CC2c1ccccc1 (centres unmarked) [Example 102a] | > 30 | > 30 | 0.1 to 1 | < 0.1 | 0.1 to 1 | – | – | – |
| CC1(Oc2ccc(Cl)cc2)CCN(CCOc2ccc(C(F)(F)F)cc2)CC1 [Compound 125, 4-(4-Chlorophenoxy)-4-methyl-1-(2-(4-(trifluoromethyl)phenoxy)ethyl) piperidine] | – | 10 to 30 | 1 to 10 | 0.1 to 1 | – | > 30 | > 30 | Brain AUC ([5]; brain): 222.3 µM·h; Brain Cmax ([5]; brain): 37.9 µM; half-life [5, 8]: 7 h; AUC ([5]; plasma): 69.6 µM·h; Cmax ([5]; plasma): 19.8 µM; half-life [5, 9]: 13.4 h; fraction unbound (Brain protein binding): 0.002 |
| CC1(Oc2ccc(Cl)cc2)CCCN(CCOc2ccccc2F)C1 (centres unmarked) [Example 98a] | < 0.1 | > 30 | < 0.1 | > 30 | < 0.1 | – | – | – |
| CC1(Oc2ccc(Cl)cc2)CCN(CCOc2ccc(F)cc2C(F)(F)F)CC1 [Compound 157, 4-(4-chlorophenoxy)-1-(2-(4-fluoro-2-(trifluoromethyl)phenoxy)ethyl)-4-methylpiperidine] | – | > 30 | 0.1 to 1 | 0.1 to 1 | – | 0.1 to 1 | 0.1 to 1 | Brain AUC ([5]; brain): 70.4 µM·h; Brain Cmax ([5]; brain): 7.03 µM; half-life [5, 8]: 6 h; AUC ([5]; plasma): 14 µM·h; Cmax ([5]; plasma): 2.47 µM; half-life [5, 9]: 6.2 h; fraction unbound (Brain protein binding): < 0.001 |
